Test results taken from patent US20210207086A1, “NE[…], INTERNAL AGENT, CULTURE MEDIUM ADDITIVE, CELL DILUENT ADDITIVE, CULTURE MEDIUM, AND CELL DILUENT” (LAIMU CORPORATION, priority 2018, published 2021).

Key:
Type in all cases: cell-based, rat
[1] = tested on: PC12 cells; experiment: Bt2cAMP-induced neurite formation-promoting effect in PC12 cells; conditions: 0.5 mM Bt2cAMP; for neurite formation ratio / neurite formation-promoting effect: compound 0.05-5 μM, FIGS. 1 and 2; for neurite formation-promoting effect compared between compounds: comparison with β-sitosterol or campesterol
Description: Using rat adrenal medullary pheochromocytoma-derived PC12 cells (obtained from RIKEN BRC) as a neurodifferentiative model, β-sitosterol, stigmasterol and campesterol were evaluated in terms of the Bt2cAMP (dibutyryladenosine 3′,5′-cyclic monophosphate)-induced neurite formation-promoting effect thereof.
First, PC12 cells were floated on an RPMI-1640 medium (from Sigma Aldrich Corporation) containing 10% equine serum (inactivated), 5% bovine fetal serum (inactivated), 100 U/mL of penicillin G and 100 μg/mL of streptomycin, and well suspended therein so as to be single cells. The suspension of PC 12 cells were sowed on a collagen-coated 96-well plate in an amount of […] cells/90 μL/well, and incubated in a 5% CO2 vapor phase at 37° C. for 24 hours. After incubation, a Dulbecco PBS(−) (Dulbecco phosphate buffer physiological saline water not containing Ca and Mg) added with Bt2cAMP at a concentration of 10 mM, RPMI-1640 medium added with β-sitosterol at a different concentration, or RPMI-1640 medium not added with β-sitosterol was added to the culture medium in each well in an amount of 5 μL each, and further incubated for 24 hours. At that time, the final concentration of each reagent added to the medium in each well was 0.5 mM with no exception for Bt2cAMP, and was 0 μM, 0.05 μM, 0.1 μM, 0.5 μM, 1 μM or 5 μM for β-sitosterol. After incubation, the culture medium was removed from each well, and 1% glutaraldehyde-containing phosphate buffer (0.1 M, pH 7.2) was dispensed in each well in an amount of 100 μL/well, and then left as such for 20 minutes to fix the cells. Subsequently, the glutaraldehyde-containing phosphate buffer was removed from each well, then a Giemsa stain fluid was dispensed in an amount of 100 μL/well, and left as such for 2 to 3 minutes for staining. After staining, the Giemsa stain fluid was removed from each well, and the stained sample in each well was washed twice with ultra-pure water, and then dried.
The number of the positive cells relative to the total number of cells (the total number of cells judged to be positive or negative) was calculated as percentage to be a neurite formation ratio. Here, for positive or negative judgement, 300 to 400 cells/well were observed.
PC12 cells were incubated according to the same method as above except that stigmasterol or campesterol, or a comparative compound of cholesterol or progesterone was used in place of β-sitosterol, and the neurite formation ratio in each case was calculated.
Graphs were drawn by plotting the neurite formation ratio relative to the concentration of β-sitosterol, campesterol or cholesterol added to the culture medium of PC 12 cells, and shown in FIG. 1. Graphs were drawn by plotting the neurite formation ratio relative to the concentration of β-sitosterol, stigmasterol or progesterone added to the culture medium of PC 12 cells, and shown in FIG. 2. In FIGS. 1 and 2, the horizontal axis is a logarithmic scale. The neurite formation ratio is shown as SD, and SD is a standard deviation in the three tests carried out in the same manner. “*” indicates p<0.05, and “**” indicates p<0.01. The same shall apply to the expression of the neurite formation ratio in FIG. 3, as measured in the following experiment (b).

[2] = tested on: PC12 cells; experiment: NGF-inductive neural differentiation-promoting effect (neurofilament immunofluorescent staining); conditions: 10 ng/mL NGF, 0.5 μM β-sitosterol, 48 hours; FIG. 5
Description: A neurofilament was used as a neural differentiation marker. This was stained according to an immunofluorescent staining method for evaluating the neural differentiation promoting effect of β-sitosterol.
PC12 cells were floated in an RPMI-1640 medium containing 10% equine serum (inactivated), 5% bovine fetal serum (inactivated), 100 U/mL of penicillin G and 100 μg/mL of streptomycin and well suspended therein to be single cells of 1.4×10^4 cells/mL. The suspension of PC12 cells was sown in a collagen-coated 8-well chamber slide at 5.0×10^3 cells/360 μL/well, and incubated in a 5% CO2 vapor phase at 37° C. for 24 hours. After incubation, an NGF-added Dulbecco PBS(−) (NGF solution), and a β-sitosterol-added RPMI-1640 medium (β-sitosterol solution) were added to the medium in each well in an amount 20 μL/well each, and further incubated for 48 hours. At that time, the final concentration of each reagent added to the medium in each well was 10 ng/mL for NGF, and was 0.5 μM for β-sitosterol. After incubation, the medium was removed from each well, which was then washed with PBS(−) (phosphate buffer physiological saline water (not containing Ca and Mg)), processed with a 4% formaldehyde solution dispensed in each well for 30 minutes, and thereafter washed three times with PBS(−) for 3 minutes. […]

[3] = tested on: PC12 cells; experiment: Cell toxicity test (Calcein-AM, number of living PC12 cells); conditions: 0.5 mM Bt2cAMP, β-sitosterol 0.05-5 μM, 24 hours; FIG. 4
Description: For confirming that the neurite formation-promoting effect of each compound recognized in the above-mentioned evaluations (a) and (b) is not caused by stress (cell toxicity) given to cells, the number of living PC12 cells incubated in a culture medium added with Bt2cAMP and β-sitosterol was evaluated using Calcein-AM (from Dojindo Molecular Technologies, Inc.). Calcein-AM is a cell membrane-permeable compound, and when taken in living cells, it is hydrolyzed with esterase to release calcein. […] Accordingly, after a group of cells were processed with Calcein-AM so as to make Calcein-AM taken by the living cells, and then the cells were disrupted to measure the fluorescence intensity by calcein, whereby the number of the living cells in the group of cells can be known. […]
The fluorescence intensity of the sample in each well processed as above was measured at an excitation wavelength of 485 nm and a detection wavelength of 527 nm. The data of the measured fluorescence intensity were plotted relative to the concentration of β-sitosterol added to the culture medium of PC12 cells, and the resultant graph is shown in FIG. 4. […] The fluorescence intensity is a relative value based on the actual value of the fluorescence intensity, 100%, measured in the system not added with β-sitosterol, and is shown as ±DS. […]

[4] = tested on: PC12 cells; experiment: NGF-induced neurite formation-promoting effect in PC12 cells; conditions: 10 ng/mL NGF, β-sitosterol 0.05-5 μM, 48 hours; FIG. 3
Description: Here, NGF (nerve growth factor) differing from Bt2cAMP in point of signaling pathways was used as an inducing agent for neurite formation to evaluate the NGF-induced neurite formation-promoting effect of β-sitosterol.
Specifically, PC12 cells were incubated according to the same method as above except that an NGF-added Dulbecco PBS(−) was used in place of the Bt2cAMP-added Dulbecco PBS(−) and the incubation time for the PC12 cells after addition of NGF and β-sitosterol thereto was 48 hours, and the neurite formation ratio was calculated. The final concentration of each reagent added to the culture medium of PC12 cells in each well was 10 ng/mL with no exception for NGF, and was 0 μM, 0.05 μM, 0.1 μM, 0.5 μM, 1 μM or 5 μM for β-sitosterol. A graph was drawn by plotting the neurite formation ratio relative to the concentration of β-sitosterol added to the culture medium of PC 12 cells, and shown in FIG. 3.

| Compound | neurite formation ratio / neurite formation-promoting effect ([1]; 24 hours) | neurite formation-promoting effect compared between compounds [1] | other results |
| --- | --- | --- | --- |
| CC[C@H](CC[C@@H](C)C1CCC2C3CC=C4C[C@@H](O)CC[C@]4(C)C3CC[C@@]21C)C(C)C (stereo partly drawn) [β-sitosterol] | significantly increased | stronger neurite formation-promoting effect than the system added with campesterol | neurofilaments (bright spots in FITC fluorescently-stained image) versus NGF alone [2]: larger number of neurofilaments appeared; fluorescence intensity (calcein), relative to system not added with β-sitosterol [3]: changed little; number of living cells [3]: does not decrease; neurite formation ratio [4]: significantly increased |
| CC(=O)[C@H]1CC[C@H]2[C@@H]3CCC4=CC(=O)CC[C@]4(C)[C@H]3CC[C@]12C [Progesterone, progesterone, reference compound] | extremely weak |  | neurite formation ratio ([1]; compound added in an amount of 0.1 μM, 24 hours, FIG. 2): recognized to increase the neurite formation ratio |
| CC(C)CCC[C@@H](C)[C@H]1CC[C@H]2[C@@H]3CC=C4C[C@@H](O)CC[C@]4(C)[C@H]3CC[C@]12C [cholesterol, reference compound] | not recognized to have a neurite formation-promoting effect |  |  |
| CC[C@H](/C=C/[C@@H](C)C1CCC2C3CC=C4C[C@@H](O)CC[C@]4(C)C3CC[C@@]21C)C(C)C (stereo partly drawn) [stigmasterol] | significantly increased | no difference in the neurite formation-promoting effect |  |
| CC(C)[C@H](C)CC[C@@H](C)[C@H]1CC[C@H]2[C@@H]3CC=C4C[C@@H](O)CC[C@]4(C)[C@H]3CC[C@]12C [campesterol] | significantly increased |  |  |
